Holding throughout (assay): SPR, lipid vesicles on L1 chip, steady-state fit
Conditions in all cases: 10% (mole/mole) lipid in DOPC vesicles; HBS pH 7.4; 25 °C
On the technique in general: SPR reads the build-up and loss of mass on a sensor chip optically.

In one assay the target is T1, TNFAIP8 (Mus musculus, UniProt Q921Z5).
T1 construct: isoform 1; pET-SUMO, N-terminal 6His-SUMO tag cleaved off by SUMO protease; E. coli BL21(DE3); untagged native protein
T1 sequence (Q921Z5 1-198): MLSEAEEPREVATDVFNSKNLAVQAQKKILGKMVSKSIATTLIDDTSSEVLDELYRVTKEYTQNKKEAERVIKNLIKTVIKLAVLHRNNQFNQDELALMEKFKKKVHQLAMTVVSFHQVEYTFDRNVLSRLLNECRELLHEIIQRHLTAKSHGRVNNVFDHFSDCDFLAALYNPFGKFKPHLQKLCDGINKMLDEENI
Format: binding.

Another assay addresses T2, PLCδ-PH.
T2 construct: gene PLCD1; N-terminal 6His-SUMO tag cleaved off; E. coli BL21(DE3)
The source says:
SPR, lipid vesicles on L1 chip, steady-state fit on PLCδ-PH | Purified PLCδ-PH and GRP1-PH domains were used as positive controls

The target in a further assay is T3, GRP1-PH.
T3 construct: gene CYTH3; N-terminal 6His-SUMO tag cleaved off; E. coli BL21(DE3)
From the text:
SPR, lipid vesicles on L1 chip, steady-state fit on GRP1-PH | Purified PLCδ-PH and GRP1-PH domains were used as positive controls

This passage reports Kd results from paper PMC7170861, “The TIPE Molecular Pilot That Directs Lymphocyte Migration in Health and Inflammation” (Scientific Reports, 2020).

Usually Kd stands for the equilibrium constant for the complex coming apart. Low values mean tighter binding, high ones weaker binding. PtdIns(4,5)P2: the values for the equilibrium dissociation constant (Kd) on TNFAIP8 and on PLCδ-PH were 3.16 µM and 2.1 ± 1.55 µM, respectively.

For the substance PtdIns(3,4,5)P3, the dissociation constant Kd was found to be 0.98 ± 0.69 µM at GRP1-PH and 4.06 µM at TNFAIP8.
